According to publication PMC11157491, “Novel Alaninamide Derivatives with Drug-like Potential for Development as Antiseizure and Antinociceptive Therapies—In Vitro and In Vivo Characterization” (ACS Chemical Neuroscience, 2024):
Read-outs that look alike come from different tables or passages of the source.

Test: Pharmacokinetic study in serum and brain
Assay type: in vivo, mice
Details: for k el: read-out: λz (converted); for Vd/F: read-out: Vz/F
Procedure: Male CD-1 mice weighing 28–33 g housed in conditions of constant temperature with the 12:12 h light–dark cycle with free access to food and water were used in this study. The investigated compound was suspended in 1% Tween in sterile water for injection (Polpharma, Poland) and administered i.p. at two doses of 25 and 50 mg/kg. Additionally, the compound dissolved in a mixture of dimethylsulfoxide (DMSO), poly(ethylene glycol), and sterile water (1:2:7, v/v/v) was given orally (p.o.) at a dose of 25 mg/kg. The mice were sacrificed by decapitation under isoflurane anesthesia. Blood samples were collected at 5, 15, 30, 60, 120, 240, and 720 min after dosing (n = 3–4), and brains were harvested at the same time points. Blood was allowed to clot at room temperature for 20 min, and serum was separated by centrifugation at 3000 rpm for 10 min. The samples were stored at −80 °C until analysis. All animal procedures were approved by the First Ethics Committee on Animal Experimentation in Kraków (license no. 270/2019).
Before LC-MS/MS analysis, mouse brains were homogenized in distilled water at the ratio of 1:4 (w/v) using the ULTRA-TURRAX T10 basic tissue homogenizer (IKA, Germany). Brain homogenates or serum samples (50 μL) were deproteinized with 150 μL of 0.1% formic acid in acetonitrile with addition of the internal standard (valsartan), shaken for 10 min (IKA Vibrax VXR, Germany), and then centrifuged for 5 min at a speed of 8000g (Eppendorf miniSpin centrifuge, Germany). Supernatants were transferred into autosampler vials, and a sample volume of 1 μL was injected into the LC-MS/MS system. The autosampler temperature was maintained at 15 °C. Analytes were separated on a Hypersil Gold C18 analytical column (3 × 50 mm^2, 5 μm, Thermo Scientific) using an AB Sciex Exion LC AC HPLC system coupled with the triple quadrupole mass spectrometer (Sciex QTRAP 4500, both from the Danaher Corporation). The oven temperature was set at 30 °C. The initial mobile phase composition was 95% B (0.1% formic acid in water) and 5% A (0.1% formic acid in MeCN) for the first 2 min with a linear gradient to 5% B in the next 2 min and then isocratic mode for 2 min with the following rapid change back to 95% B in 0.1 min. The remaining time of elution was set at 95% B. The whole HPLC operation lasted 10 min, and the flow rate was set at 0.4 mL/min. Electrospray ionization (ESI) in the positive ion mode was used for ion production. […] The mass spectrometric conditions were optimized by continuous infusion of the standard solution at a rate of 7 μL/min using a Harvard infusion pump. The ion source temperature was maintained at 450 °C, and the ion spray voltage was set at 5500 V. The curtain gas (CUR) was set at 40 psi and the collision gas (CAD) at Medium. The calibration curves were constructed by plotting the ratio of the peak area of the studied compound to the internal standard (IS) versus drug concentration and generated by weighted (1/x × x) linear regression analysis. […] Working standard solutions were prepared in methanol by the serial dilution of the stock solution at the following concentrations: 0.01, 0.1, 0.25, 0.5, 1, 2.5, 5, 10, 20, 50, 100, and 200 μg/mL. To prepare samples for the calibration curve, 45 μL of the matrix (plasma or brain homogenate) was spiked with 5 μL of the standard working solution at an appropriate concentration level and vortexed for 10 s. For each matrix, there were two calibration curves constructed separately for lower and higher concentrations. Calibrators (as well as samples) from the upper concentration range were additionally 10 times diluted with the precipitating agent. The validated quantitation ranges for this method were from 0.001 to 5 μg/mL and from 0.1 to 20 μg/mL of serum, and from 0.005 to 25 μg/g and from 0.5 to 100 μg/g of the brain. Samples with the concentration of 28 above the upper limit of quantification were diluted 10 times with the blank matrix (serum or brain homogenate). […]

[1] = male, CD-1, mouse, ip, brain, i.p. 25 mg/kg, mice
[2] = male, CD-1, mouse, ip, brain, i.p. 50 mg/kg, mice
[3] = male, CD-1, mouse, ip, serum, i.p. 25 mg/kg, mice
[4] = male, CD-1, mouse, ip, serum, i.p. 50 mg/kg, mice
[5] = male, CD-1, mouse, po, brain, p.o. 25 mg/kg, mice
[6] = male, CD-1, mouse, po, serum, p.o. 25 mg/kg, mice

brain concentration (after 25 mg/kg dose administration): > 10 µM
AUC0–t (brain, i.p. 25 mg/kg, mice): 347,914.8 ng·min/mL (g)
AUC0–∞ (brain, i.p. 25 mg/kg, mice): 348,212.5 ng·min/mL (g)
Cmax (brain, i.p. 25 mg/kg, mice): 13,683.3 ng/mL (g)
t0.5λz (brain, i.p. 25 mg/kg, mice): 111.39 min
AUC0–t (brain, i.p. 50 mg/kg, mice): 1,284,194.3 ng·min/mL (g)
AUC0–∞ (brain, i.p. 50 mg/kg, mice): 1,285,007.9 ng·min/mL (g)
Cmax (brain, i.p. 50 mg/kg, mice): 39,800.0 ng/mL (g)
t0.5λz (brain, i.p. 50 mg/kg, mice): 106.52 min
AUC0–t (brain, p.o. 25 mg/kg, mice): 333,360.7 ng·min/mL (g)
AUC0–∞ (brain, p.o. 25 mg/kg, mice): 334,667.7 ng·min/mL (g)
Cmax (brain, p.o. 25 mg/kg, mice): 3799.4 ng/mL (g)
t0.5λz (brain, p.o. 25 mg/kg, mice): 97.20 min
Kp (male, CD-1, mouse, brain/serum, intraperitoneal, oral, both doses and routes of administration, read-out: brain-to-serum Cmax and AUC ratio): > 1
Tmax (male, CD-1, mouse, intraperitoneal, oral, all cases (serum and brain, both doses and routes), read-out: time to reach the maximum concentration (tmax) (converted)): 5 min
half-life (male, CD-1, mouse, intraperitoneal, oral, serum and brain, both doses and routes (i.p. and p.o.), read-out: elimination half-lives (t1/2)): 58.6 to 111 min
MRT [1]: 23.6 min
Tmax (male, CD-1, mouse, ip, brain, i.p. 25 mg/kg, mice, read-out: tmax (converted)): 5 min
k el [1]: 0.0001 s⁻¹
MRT [2]: 26.4 min
Tmax (male, CD-1, mouse, ip, brain, i.p. 50 mg/kg, mice, read-out: tmax (converted)): 5 min
k el [2]: 0.000117 s⁻¹
CL/F [3]: 98 mL/min/kg
MRT [3]: 22 min
Vd/F [3]: 13.4 L/kg
Tmax (male, CD-1, mouse, ip, serum, i.p. 25 mg/kg, mice, read-out: tmax (converted)): 5 min
k el [3]: 0.000117 s⁻¹
CL/F [4]: 48 mL/min/kg
MRT [4]: 24.4 min
Vd/F [4]: 5.89 L/kg
Tmax (male, CD-1, mouse, ip, serum, i.p. 50 mg/kg, mice, read-out: tmax (converted)): 5 min
k el [4]: 0.000133 s⁻¹
MRT [5]: 110 min
Tmax (male, CD-1, mouse, po, brain, p.o. 25 mg/kg, mice, read-out: tmax (converted)): 5 min
k el [5]: 0.000117 s⁻¹
CL/F [6]: 84 mL/min/kg
MRT [6]: 101 min
Vd/F [6]: 7.1 L/kg
Tmax (male, CD-1, mouse, po, serum, p.o. 25 mg/kg, mice, read-out: tmax (converted)): 5 min
k el [6]: 0.0002 s⁻¹
AUC0–t (serum, i.p. 25 mg/kg, mice): 254,384.6 ng·min/mL (g)
AUC0–∞ (serum, i.p. 25 mg/kg, mice): 254,465.4 ng·min/mL (g)
Cmax (serum, i.p. 25 mg/kg, mice): 11,033.3 ng/mL (g)
t0.5λz (serum, i.p. 25 mg/kg, mice): 94.29 min
AUC0–t (serum, i.p. 50 mg/kg, mice): 1,045,787.2 ng·min/mL (g)
AUC0–∞ (serum, i.p. 50 mg/kg, mice): 1,045,940.8 ng·min/mL (g)
Cmax (serum, i.p. 50 mg/kg, mice): 37,566.7 ng/mL (g)
t0.5λz (serum, i.p. 50 mg/kg, mice): 85.42 min
AUC0–t (serum, p.o. 25 mg/kg, mice): 297,899.7 ng·min/mL (g)
AUC0–∞ (serum, p.o. 25 mg/kg, mice): 298,019.5 ng·min/mL (g)
Cmax (serum, p.o. 25 mg/kg, mice): 3740.0 ng/mL (g)
t0.5λz (serum, p.o. 25 mg/kg, mice): 58.62 min
SMILES: CC(=O)NC(C)C(=O)N1CCN(c2cccc(OC(F)(F)F)c2)CC1 (stereo not shown) [Compound 28, N-(1-oxo-1-(4-(3-(Trifluoromethoxy)phenyl)piperazin-1-yl)propan-2-yl)acetamide]
